Literature values as cited in patent US20080206348A1, “Cilostazol-Containing Pharmaceutical Composition Based On Particles Of Less Than 50 Micrometers” (priority 2004, published 2008).

O=C1CCc2cc(OCCCCc3nnnn3C3CCCCC3)ccc2N1 [Cilostazol]
Solubility in water: practically insoluble
